For test [1], the system named is endogenous IL-2 gene in HEK293 cells. The experiment in a line: Endogenous gene regulation assay (CRISPRa). It counts as cell-based, human. The note with it: 300 nM simeprevir, split dCas9/AD cassette and IL-2 targeted gRNA. An excerpt:
CRISPRa relies on the use of a dead Cas9 enzyme (dCas9) with no endonuclease activity to bind to a target site within the promoter region of an endogenous gene via a single guide RNA. Upon recruitment of a transcriptional activator, transcription of the endogenous gene is initiated.
The dCas9 and AD are separately fused to the two protein components of the CID such that, only in the presence of the small molecule inducer, the AD is brought into close proximity to dCas9, allowing recruitment of the transcription machinery to the promoter region of an endogenous gene via a single guide RNA (sgRNA). In this example, an activation plasmid was generated consisting of two functional units; an AD fused to the HCV NS3/4A PR (S139A) (SEQ ID 226) and a dCas9 fused to three tandem copies of PRSIM-23 (SEQ ID 228). The sequences are preceded by a CMV promoter and separated by an internal ribosome entry site (IRES). A gRNA plasmid was generated by golden gate assembly, utilising BsaI. […]
Transcriptional regulation assays were performed in adherent HEK293 cells cultured in 96-well plates. Cells enzymatically dissociated from a tissue culture flask were counted and plated at 2.5×10^4 cells/well. […] 72 hours post-treatment (day 6), the cell supernatant was harvested and IL-2 quantified using a V-PLEX Human IL-2 Kit (Meso Scale Discovery), as per the manufacturer's protocol.

The test system of test [2] is iPSC single-cell clones with B2M-targeted kill switch. The experiment in a line: Real-time cell analysis (RTCA) of kill switch activity in iPS cells. In kind it is cell-based, human. The note with it: 1 nM simeprevir. An excerpt:
A stable induced pluripotency stem cell (iPSC) line (a single clone (B-3/1F1) derived from the fibroblast cells of a healthy human donor from Research Specimen Collection Program of Astrazeneca) stably expressing the simeprevir-inducible kill switch was generated using CRISPR/Cas9 technology, using AAV-encoded DNA as template for targeted integration into the β2 microglobulin (B2M) locus.
The donor construct (FIG. 33A) encoding the PRSIM-based kill switch (SEQ ID 223) was synthesized and purchased from GenScript, Inc. and was subcloned into an AAV shuttle plasmid backbone. The donor construct was packaged into adeno-associated viral (AAV) particles; briefly, the donor plasmid was co-transfected with two helper plasmids, pAd5Helper and pR2C6, encoding adenoviral components essential for AAV replication and AAV2 replication (rep)/AAV6 capsid (cap) proteins respectively. After 72 hours, the cells were collected and were disrupted by freeze-thawing. The cell lysate was digested with Benzonase (100 U/ml) for 1 hour at 37° C. and were centrifugated. The vector-containing supernatant was collected and applied to Iodixanol gradient followed by ultracentrifugation. After ultracentrifugation, the vector containing solution was collected and washed with 20 mL PBS in a centrifugal concentrator tube for 3 times. Finally, the solution was concentrated to 1 mL. […]

Each structure is given as a SMILES string.

For `COc1ccc2c(O[C@@H]3C[C@H]4C(=O)N[C@]5(C(=O)NS(=O)(=O)C6CC6)C[C@H]5/C=C\CCCCN(C)C(=O)[C@@H]4C3)cc(-c3nc(C(C)C)cs3)nc2c1C` [simeprevir], the IL-2 secretion result in test [1] was “resulted in secretion of IL-2”. Besides, the cell proliferation index entry in test [2] (clones encoding the kill switch) is reported as “dramatic reduction in cell proliferation index after 5 hours”; in test [2] (parental iPSC cells), “continued to proliferate”.

(Values after patent US20220380801A1, “TRIPARTITE SYSTEMS FOR PROTEIN DIMERIZATION AND METHODS OF USE” (priority 2019, published 2022).)
